The values below come from patent US10857136B2, “Compounds for use in the prevention and/or treatment of non-alcoholic fat liver disease and non-alcoholic steatohepatitis” (SJT MOLECULAR RESEARCH, SL, priority 2017, dated 2020).

Holding throughout (format): in vivo
For assay [1], the system named is DIO-NASH mice (C57Bl/6J male mice). The assay is described as follows: Liver inflammation: galectin-3 IHC staining in DIO-NASH mice. The following applies: 50 mg/kg, p.o., b.i.d., 8 weeks. As to the method: To assess the effect of the compounds of the invention in inflammation of liver in the treatment of non-alcoholic fat liver disease, liver galactin-3 (inflammation marker) levels were determined after a 8 weeks study where DIO-NASH mice (C57Bl/6J male mice) were treated with a hydrochloride salt of compound 4a during 8 weeks (50 mg/kg, p.o., b.i.d.), versus a pathological control of DIO-NASH mice and a non-pathological control LEAN-CHOW mice, both treated with the vehicle (0.9% NaCl).
Galectin-3 was measured via galtactin-3 IHC staining: galectin-3 (Biolegend, Cat. #125402) IHC were performed using standard procedures. Briefly, after antigen retrieval and blocking of endogenous peroxidase activity, slides were incubated with primary antibody. The primary antibody was detected using a linker secondary antibody followed by amplification using a polymeric HRP-linker antibody conjugate. Next, the primary antibody was visualized with DAB as chromogen. Finally, sections were counterstained in hematoxylin and cover-slipped.

Assay [2] has the same test system. The assay is described as follows: Absolute and relative body weight, 8 weeks assay in DIO-NASH mice. The conditions noted are these: 50 mg/kg, p.o., b.i.d., statistics at day 54, vs DIO-NASH vehicle. As to the method:
The assay was carried out to evaluate the effect of the compounds of the invention on body weight of animals with non-alcoholic fat liver disease (DIO-NASH mice). For this assay, the effect of compound 4a in absolute and relative body weight was evaluated. DIO-NASH mice (C57Bl/6J male mice) were treated with a hydrochloride salt of compound 4a during 8 weeks (50 mg/kg, p.o., b.i.d.), versus a pathological control of DIO-NASH mice and a non-pathological control LEAN-CHOW mice, both treated with the vehicle (0.9% NaCl). The DIO-NASH mice group were put on high fat diet (40% AMLN diet, D09100301 Research Diets, USA) and a control group (LEAN-CHOW) was put on a regular chow diet (Altromin 1324, Brogaarden, Denmark) for 35 weeks prior to the study.
Body weight of for each of the groups taken on a daily basis. The animals were kept under the same conditions were used as in example 2.2.

Assay [3] shares this test system. Briefly: Liver fibrosis: collagen type I (col1a1) IHC staining in DIO-NASH mice. The following applies: 50 mg/kg, p.o., b.i.d., 8 weeks. The procedure: To assess the effect of the compounds of the invention in fibrosis of liver in the treatment of non-alcoholic fat liver disease, the collagen type I (a fibrosis marker) in liver was measured after the 8 weeks of the study where DIO-NASH mice (C57Bl/6J male mice) were treated with a hydrochloride salt of compound 4a during 8 weeks (50 mg/kg, p.o., b.i.d.), versus a pathological control of DIO-NASH mice and a non-pathological control LEAN-CHOW mice, both treated with the vehicle (0.9% NaCl).
Type I collagen content was measured by IHC staining: Type I collagen (Southern Biotech, Cat. 1310-01) IHC was performed using standard procedures. Briefly, after antigen retrieval and blocking of endogenous peroxidase activity, liver slides were incubated with primary antibody. The primary antibody was detected using biotinylated secondary antibody and amplified using a vectastain-TSA-vectastain method a polymeric HRP-linker antibody conjugate. Next, the primary antibody was visualized with DAB as chromogen. Finally, sections were counterstained in hematoxylin and cover-slipped.

Assay [4] has the same test system. Briefly: NAFLD activity score (NAS) of liver biopsies pre and post study in DIO-NASH mice. The following applies: 50 mg/kg, p.o., b.i.d., 8 weeks, score range 0-8. As to the method:
Non-alcoholic fat liver disease (NAFLD) activity score or NAS was evaluated by measurements of steatosis, lobular inflammation, ballooning degeneration and […] of the liver.
Total NAS score represents the sum of scores for steatosis, inflammation, and ballooning, and ranges from 0-8 as follows:
The % of steatosis degree refers to the amount of surface area of the sample involved by steatosis as evaluated on low to medium power examination.
The value given to measure inflammation corresponds to the number of inflammatory foci per field using a 200× magnification. A focus is defined as a cluster, not a row, of >3 inflammatory cells. Acidophil bodies are not included in the inflammatory assessment.
The ballooning degeneration value is measured by the amount of balloon cells, corresponding to degenerated hepatocytes with cleared cytoplasm, enlargement, swelling, rounding and reticulated cytoplasm. […]
Liver samples were fixed in formalin, paraffin embedded, and sections were stained with hematoxylin and eosin (H&E) and Sirius Red. Samples are scored for NAS and fibrosis using of the clinical criteria outlined by Kleiner et al. 2005. […]

In the case of `COc1ccc(-c2nc(C(=O)NCCN)cc3c2[nH]c2ccccc23)cc1` [Compound 4a, N(-ethylamine)-1-benzosubstituted-β-carboline-3-carboxamide], in assay [1] (end of study), the “anti-galectin-3 staining, representative images of liver samples” value was “visible change in this inflammation marker”. The “total liver galectin-3 content determined by morphometry” value in assay [1] (vs DIO-NASH vehicle) is recorded as “reduced total galectin-3 content”. Moreover, in assay [2], the absolute body weight entry was “reduced body weight” and the “relative body weight versus the body weight at the start of the treatment (day 0 is 100%)” value is reported as “reduced relative body weight significantly”. Also, the “anti-type I collagen (col1a1) staining, representative images of liver samples” value in assay [3] (end of study) is given as “visible change in this fibrosis marker”. For the same molecule, in assay [3] (vs DIO-NASH vehicle), the “total content of liver collagen type 1 (col1a1) determined by morphometry” value was “reduced total liver col1a1”. In addition, the “NAS score change of the liver biopsy pre and post study” value in assay [4] is given as “generally reduced the NAS score”.
